Experimental data: patent US8586747B2, “3,3-dimethyl tetrahydroquinoline derivatives” (Hoffmann-La Roche Inc., priority 2010, dated 2013)

Test system: AMP-activated protein kinase (AMPK)
Experiment: ADP Quest assay for AMPK activators
Type: biochemical
Design: key: fold AMPK activation with vs without activator at 30 µM
Settings: fold of AMPK activation to phosphorylate SAMS peptide without and with an activator at the concentration of 30 µM
Description: ADP Quest™ Assay for AMPK Activators
This method evaluates AMP-activated protein kinase (AMPK) activity through detecting the accumulation of ADP product using an ADP Quest kit and determining the E30 values of the small molecular AMPK activators. ADP Quest kit (DiscoveRx, Fremont, Calif.) is stored at −20° C. before use. Before an experiment, thaw the kit (include assay buffer, ADP standard solution, reagent A and reagent B) and equilibrate to room temperature. Dispense the ADP Quest reagents into single-use aliquots and store at −20° C. The compound concentrations typically range from 0 µM to 100 µM by 2-fold dilution. AMP concentrations range from […] to 1 mM as the reference control. In an assay, thaw and equilibrate the assay buffer, reagent A and reagent B to room temperature for 30 minutes prior to use. Mix ATP, SAMS peptide substrate and compound, and place them into the 384-well assay plate. Add reagent A and B based on the assay kit protocol. Incubate the assay plate at room temperature for 30 minutes after addition the mixture followed by the addition of AMPK protein (Invitrogen, CA) to initiate the AMPK phosphorylation reaction. At the same time, reactions with AMPK activator AMP in the absence of enzyme is included as blank control. The reaction fluorescence signal is monitored and recorded on Envision in kinetic mode with the excitation wavelength of 530 nm and emission wavelength of 590 nm. The E30 value, defined as the fold of AMPK activation to phosphorylate SAMS peptide without and with an activator at the concentration of 30 µM, is calculated and analyzed using Prism 5.0.

Row | SMILES | E30
1 | CC1(C)Cc2cc(C(=O)O)ccc2NC1c1cccc(N2CCNC2=O)c1 (centres unmarked) [Example 17, 3,3-Dimethyl-2-[3-(2-oxo-imidazolidin-1-yl)-phenyl]-1,2,3,4-tetrahydro-quinoline-6-carboxylic acid] | 1.45
2 | CC(C)[C@H]1COC(=O)N1c1cccc(C2Nc3ccc(C(=O)O)cc3CC2(C)C)c1 (some centres unmarked) [Example 122] | 1.39
3 | CC1(C)Cc2cc(C(=O)O)ccc2NC1c1ccc(NC(=O)c2ccccc2)cc1 (centres unmarked) [Example 185, 2-(4-Benzamidophenyl)-3,3-dimethyl-1,2,3,4-tetrahydroquinoline-6-carboxylic acid] | 1.22
4 | CC(C)N(C(N)=O)c1cccc(C2Nc3ccc(C(=O)O)cc3CC2(C)C)c1 (centres unmarked) [Example 32, 2-[3-(1-Isopropyl-ureido)-phenyl]-3,3-dimethyl-1,2,3,4-tetrahydro-quinoline-6-carboxylic acid] | 1.38
5 | CNS(=O)(=O)c1ccc(C2Nc3ccc(C(=O)O)cc3CC2(C)C)cc1 (centres unmarked) [Example 226, 3,3-Dimethyl-2-(4-(N-methylsulfamoyl)phenyl)-1,2,3,4-tetrahydroquinoline-6-carboxylic acid] | 1.32
6 | CC1(C)Cc2cc(C(=O)O)ccc2NC1c1ccc(NC(=O)C2CCC2)cc1 (centres unmarked) [Example 215, 2-(4-(Cyclobutanecarboxamido)phenyl)-3,3-dimethyl-1,2,3,4-tetrahydroquinoline-6-carboxylic acid] | 1.38
7 | CC1(C)Cc2cc(C(=O)O)ccc2NC1c1ccccc1NS(=O)(=O)c1ccc(F)cc1 (centres unmarked) [Example 218, 2-(2-(4-Fluorophenylsulfonamido)phenyl)-3,3-dimethyl-1,2,3,4-tetrahydroquinoline-6-carboxylic acid] | 2.53
8 | CN(CC(=O)O)C(=O)c1ccc2c(c1)CC(C)(C)C(c1cccc(N3CCOCC3)c1)N2 (centres unmarked) [Example 23, {[3,3-Dimethyl-2-(3-morpholin-4-yl-phenyl)-1,2,3,4-tetrahydro-quinoline-6-carboxyl]-methyl-amino}-acetic acid] | 1.32
9 | CC1(C)Cc2cc(C(=O)O)ccc2NC1c1ccc(F)c(NC(=O)C2CCCCC2)c1 (centres unmarked) [Example 211, 2-(3-(Cyclohexanecarboxamido)-4-fluorophenyl)-3,3-dimethyl-1,2,3,4-tetrahydroquinoline-6-carboxylic acid] | 1.41
10 | CC1(C)Cc2cc(C(=O)O)ccc2NC1c1ccc(NS(=O)(=O)c2cccc(F)c2)cc1 (centres unmarked) [Example 212, 2-(4-(3-Fluorophenylsulfonamido)phenyl)-3,3-dimethyl-1,2,3,4-tetrahydroquinoline-6-carboxylic acid] | 1.28
11 | CC(C)C(=O)Nc1cc(C2Nc3ccc(C(=O)O)cc3CC2(C)C)ccc1Cl (centres unmarked) [Example 177, 2-(4-Chloro-3-isobutyramidophenyl)-3,3-dimethyl-1,2,3,4-tetrahydroquinoline-6-carboxylic acid] | 1.4
12 | CN1CCC(NC(=O)c2cccc(C3Nc4ccc(C(=O)O)cc4CC3(C)C)c2)C1 (centres unmarked) [Example 165, 3,3-dimethyl-2-(3-(1-methylpyrrolidin-3-ylcarbamoyl)phenyl)-1,2,3,4-tetrahydroquinoline-6-carboxylic acid] | 1.53
13 | CC1(C)Cc2cc(C(=O)NS(=O)(=O)C3CC3)ccc2NC1c1cccc(N2CCOC2=O)c1 (centres unmarked) [Example 116, Cyclopropanesulfonic acid {3,3-dimethyl-2-[3-(2-oxo-oxazolidin-3-yl)-phenyl]-1,2,3,4-tetrahydro-quinoline-6-carbonyl}-amide] | 1.2
14 | CC1(C)Cc2cc(C(=O)NS(C)(=O)=O)ccc2NC1c1cccc(N2CCNCC2)c1 (centres unmarked) [Example 103, N-[3,3-Dimethyl-2-(3-piperazin-1-yl-phenyl)-1,2,3,4-tetrahydro-quinoline-6-carbonyl]-methanesulfonamide] | 1.37
15 | CC1(C)Cc2c(ccc(F)c2C(=O)O)NC1c1cccc(N2CCOCC2)c1 (centres unmarked) [Example 121, 6-Fluoro-3,3-dimethyl-2-(3-morpholin-4-yl-phenyl)-1,2,3,4-tetrahydro-quinoline-5-carboxylic acid] | 1.42
16 | CC1(C)Cc2cc(C(=O)NS(=O)(=O)C3CC3)ccc2NC1c1cc(N2CCOCC2)ccc1F (centres unmarked) [Example 54, Cyclopropanesulfonic acid [2-(2-fluoro-5-morpholin-4-yl-phenyl)-3,3-dimethyl-1,2,3,4-tetrahydro-quinoline-6-carbonyl]-amide] | 1.28
17 | CC1(C)Cc2cc(C(=O)NS(C)(=O)=O)ccc2NC1c1cccc(N2CCOC2=O)c1 (centres unmarked) [Example 110, N-{3,3-Dimethyl-2-[3-(2-oxo-oxazolidin-3-yl)-phenyl]-1,2,3,4-tetrahydro-quinoline-6-carbonyl}-methanesulfonamide] | 1.24
18 | CC1(C)Cc2cc(C(=O)O)ccc2NC1c1ccccc1NS(=O)(=O)c1ccccc1 (centres unmarked) [Example 220, 3,3-Dimethyl-2-(2-(phenylsulfonamido)phenyl)-1,2,3,4-tetrahydroquinoline-6-carboxylic acid] | 1.89
19 | CC1(C)Cc2cc(C(=O)O)ccc2NC1c1cccc(NC(=O)c2cccnc2)c1 (centres unmarked) [Example 3, 3,3-Dimethyl-2-{3-[(pyridine-3-carbonyl)-amino]-phenyl}-1,2,3,4-tetrahydro-quinoline-6-carboxylic acid] | 1.33
20 | CC(C)(Nc1cccc(C2Nc3ccc(S(C)(=O)=O)cc3CC2(C)C)c1)C(=O)O (centres unmarked) [Example 48, 2-[3-(6-Methanesulfonyl-3,3-dimethyl-1,2,3,4-tetrahydro-quinolin-2-yl)-phenylamino]-2-methyl-propionic acid] | 2.62
21 | CC(=O)Nc1cccc(C2Nc3ccc(C(=O)O)cc3CC2(C)C)c1 (centres unmarked) [Example 204, 2-(3-Acetamidophenyl)-3,3-dimethyl-1,2,3,4-tetrahydroquinoline-6-carboxylic acid] | 1.4
22 | CC(C)(C)c1ccc(-c2cc(F)cc(C3Nc4ccc(C(=O)NS(C)(=O)=O)cc4CC3(C)C)c2)cc1 (centres unmarked) [Example 49, N-[2-(4′-tert-Butyl-5-fluoro-biphenyl-3-yl)-3,3-dimethyl-1,2,3,4-tetrahydro-quinoline-6-carbonyl]-methanesulfonamide] | 2.25
23 | Cc1ccc(N2CCN(c3cccc(C4Nc5ccc(C(=O)O)cc5CC4(C)C)c3)CC2)c(C)c1 (centres unmarked) [Example 89, 2-{3-[4-(2,4-Dimethyl-phenyl)-piperazin-1-yl]-phenyl}-3,3-dimethyl-1,2,3,4-tetrahydro-quinoline-6-carboxylic acid] | 1.3
24 | CC1(C)Cc2cc(C(=O)O)ccc2NC1c1cccc(NC(=O)c2ccccc2)c1 (centres unmarked) [Example 12, 2-(3-Benzoylamino-phenyl)-3,3-dimethyl-1,2,3,4-tetrahydro-quinoline-6-carboxylic acid] | 1.22
25 | CC1(C)Cc2cc(Cl)cc(C(=O)NS(C)(=O)=O)c2NC1c1cccc(N2CCN(c3ccc(Cl)cc3)CC2)c1 (centres unmarked) [Example 93, N-(6-Chloro-2-{3-[4-(4-chloro-phenyl)-piperazin-1-yl]-phenyl}-3,3-dimethyl-1,2,3,4-tetrahydro-quinoline-8-carbonyl)-methanesulfonamide] | 1.32
26 | CC1(C)Cc2cc(C(=O)NS(C)(=O)=O)ccc2NC1c1cccc(C(=O)Nc2ccccc2)c1 (centres unmarked) [Example 9, 3-(6-Methanesulfonylaminocarbonyl-3,3-dimethyl-1,2,3,4-tetrahydro-quinolin-2-yl)-N-phenyl-benzamide] | 1.28
